Calls of active or inactive are those of the source.
Legend:
[1] = DRD fibroblast viability loss – cell-based, non-viral oncogenic, luminescence, dose response (AID 1934); assay type: functional; settings: Homo sapiens
[2] = reduction of Shn3 3'UTR-driven luciferase in osteoblasts – cell-based, Clone20 osteoblasts, firefly luciferase, cherry-picked, dose response (AID 624132); assay type: functional;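 note: firefly luciferase luminescence from reporter carrying the Shn3 3'UTR in osteoblasts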
BJ [3] = assay: cells; assay type: functional, cell-based; settings: Homo sapiens
Phospholipase A2 = Phospholipase A2 (Homo sapiens, UniProt P04054); assay: phospholipase A2 activity inhibition – biochemical, set 2, counter-screen for ATG4B inhibitor project, dose response (AID 588586); assay type: functional
BJ [4] = assay: BJ-TERT-LT-ST fibroblast viability loss – cell-based, RAS-independent, luminescence, dose response (AID 1935); assay type: functional; settings: Homo sapiens;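 note: BJ fibroblasts immortalized with TERT plus LT and ST oncogenes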
Cysteine protease ATG4B = Cysteine protease ATG4B (Homo sapiens, UniProt Q9Y4P1); assay: autophagin-1 cysteine protease inhibition – biochemical, fluorescence, set 2, dose response (AID 588584); assay type: functional
[5] = non-specific 3'UTR reporter inhibition in Clone20-Shn3RL – cell-based, Renilla luciferase, cherry-picked, counter-screen for Shn3 inhibitor project, dose response (AID 624133); assay type: functional
BJ [6] = assay: BJ-TERT fibroblast viability loss – cell-based, RAS-independent, luminescence, dose response (AID 1933); assay type: functional; settings: Homo sapiens
[7] = test system: Streptococcus sp. 'group A'; assay: Streptococcus pyogenes SK(-)GAS viability under kanamycin – luminescence, BacTiterGlo, confirmation, counter-screen for streptokinase expression inhibitor project, dose response (AID 1900); assay type: functional, organism-based
[8] = biological target: Neurotensin receptor type 1 (Homo sapiens, UniProt P30989); assay type: functional;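 note: Image-based confirmatory dose-response assay measuring agonist activity at NTR1; NTR1-expressing U2OS osteosarcoma cells imaged for beta-arrestin GFP spot formation; agonist potency where compounds increase beta-arrestin recruitment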
[9] = cAMP pathway inhibition in counterscreen cell line – TR-FRET cAMP detection, counter-screen for MC4R biased antagonist project, dose response (AID 602305); assay type: functional, cell-based;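 note: U2OS cells stimulated with forskolin near its EC80 as the cAMP inducer; potency is for inhibition of forskolin-stimulated cAMP signaling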
Streptococcus = assay: GAS UMAA2166 growth inhibition – luminescence, BacTiterGlo, counter-screen for streptokinase expression inhibitor project, dose response (AID 1915); assay type: functional, organism-based;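 note: potency for reduction of bacterial viability or growth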
[10] = biological target: T1, Microphthalmia-associated transcription factor (Homo sapiens, UniProt O75030); assay: reducers of TRPM1 reporter luminescence, concentration series – cell-based, SK-MEL-5, cherry-picked, set 3, MITF inhibitor project, dose response (AID 493073); assay type: functional;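 note: SK-MEL-5 melanoma cells with luciferase driven by the MITF target TRPM1 promoter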
T1 sequence (O75030 whole entry): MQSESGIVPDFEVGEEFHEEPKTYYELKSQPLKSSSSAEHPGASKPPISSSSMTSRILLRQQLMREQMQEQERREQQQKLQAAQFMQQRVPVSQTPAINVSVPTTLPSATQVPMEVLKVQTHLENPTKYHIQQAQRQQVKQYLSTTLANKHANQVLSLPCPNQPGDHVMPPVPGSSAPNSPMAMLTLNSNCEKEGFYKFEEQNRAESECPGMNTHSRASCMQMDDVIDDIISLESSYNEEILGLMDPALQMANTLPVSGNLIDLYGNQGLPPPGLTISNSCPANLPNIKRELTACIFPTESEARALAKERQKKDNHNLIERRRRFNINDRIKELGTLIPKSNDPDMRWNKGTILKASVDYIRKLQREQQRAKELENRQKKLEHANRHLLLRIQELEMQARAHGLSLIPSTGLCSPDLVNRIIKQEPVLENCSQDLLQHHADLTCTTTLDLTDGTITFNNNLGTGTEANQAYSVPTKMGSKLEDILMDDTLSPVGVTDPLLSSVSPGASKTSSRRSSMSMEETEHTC

Melanocortin receptor 4 = Melanocortin receptor 4 (Homo sapiens, UniProt P32245); assay: inhibitors of MC4R cAMP signaling – cell-based, TR-FRET, biased antagonists, dose response (AID 602298); assay type: functional;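 note: antagonist potency against agonist-stimulated cAMP production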
Mu-type opioid receptor = Mu-type opioid receptor (Homo sapiens, UniProt P35372); assay: (§1) Counterscreen for agonists of heterodimerization of the mu 1 (OPRM1) and delta 1 (OPRD1) opioid receptors: Luminescence-based cell-based high throughput dose response assay to identify agonists of OPRM1 homodimerization.; assay type: functional
Streptokinase A = biological target: T2, Streptokinase A (Streptococcus pyogenes serotype M1, UniProt P10520); assay: viability-normalized secreted streptokinase activity reduction – plasminogen activation absorbance, OD405, dose response (AID 1914); assay type: functional, Streptococcus pyogenes M1 GAS;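 note: secreted streptokinase activity via plasminogen activation per viability signal from cell pellet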
T2 sequence (P10520 whole entry): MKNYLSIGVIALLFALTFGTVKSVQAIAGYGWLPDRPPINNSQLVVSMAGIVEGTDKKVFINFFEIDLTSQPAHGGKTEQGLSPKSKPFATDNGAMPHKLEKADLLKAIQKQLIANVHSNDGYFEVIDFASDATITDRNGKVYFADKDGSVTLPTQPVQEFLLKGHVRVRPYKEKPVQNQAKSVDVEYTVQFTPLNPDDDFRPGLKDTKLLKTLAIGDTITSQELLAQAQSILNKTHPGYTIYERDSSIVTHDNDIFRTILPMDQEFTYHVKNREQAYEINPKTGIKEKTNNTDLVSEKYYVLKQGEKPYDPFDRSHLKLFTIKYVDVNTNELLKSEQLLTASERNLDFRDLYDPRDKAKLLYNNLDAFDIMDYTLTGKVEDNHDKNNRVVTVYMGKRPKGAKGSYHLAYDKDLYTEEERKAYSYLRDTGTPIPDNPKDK

A-375 = assay: MITF: Counter assay: A375 proliferation Measured in Cell-Based System Using Plate Reader - 2084-03_Inhibitor_Dose_DryPowder_Activity. [Related pubchem assays (depositor defined):AID488944]; assay type: functional; settings: Homo sapiens
[11] = biological target: Delta-type opioid receptor (Homo sapiens, UniProt P41143); assay: as §1, with “of OPRD1” for “of OPRM1”, “homodimerization. [Related pubchem assays (depositor defined):AID504326, AID504355, AID504692, AID504904, AID504905]” for “homodimerization.”; assay type: functional
[12] = biological target: 5-hydroxytryptamine receptor 5A (Homo sapiens, UniProt P47898); assay: Counterscreen for agonists of OPRM1-OPRD1 heterodimerization: luminescence-based cell-based high throughput dose response assay to identify agonists of 5-hydroxytryptamine (serotonin) 5A receptor (HTR5A). [Related pubchem assays (depositor defined):AID504326, AID504355, AID504692, AID504904, AID504905]; assay type: functional
5-hydroxytryptamine receptor 5A, sequence (P47898 whole entry): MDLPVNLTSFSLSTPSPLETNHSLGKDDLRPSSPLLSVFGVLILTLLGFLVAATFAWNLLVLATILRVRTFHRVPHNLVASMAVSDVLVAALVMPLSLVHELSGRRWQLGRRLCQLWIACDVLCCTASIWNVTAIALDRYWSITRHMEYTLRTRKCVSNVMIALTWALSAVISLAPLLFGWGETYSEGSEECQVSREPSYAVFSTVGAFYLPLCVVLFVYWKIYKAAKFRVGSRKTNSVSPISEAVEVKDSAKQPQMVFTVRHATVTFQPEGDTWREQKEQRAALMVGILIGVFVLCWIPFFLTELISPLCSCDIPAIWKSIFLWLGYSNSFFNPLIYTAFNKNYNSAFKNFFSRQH

Neurotensin receptor type 1, sequence (P30989 whole entry): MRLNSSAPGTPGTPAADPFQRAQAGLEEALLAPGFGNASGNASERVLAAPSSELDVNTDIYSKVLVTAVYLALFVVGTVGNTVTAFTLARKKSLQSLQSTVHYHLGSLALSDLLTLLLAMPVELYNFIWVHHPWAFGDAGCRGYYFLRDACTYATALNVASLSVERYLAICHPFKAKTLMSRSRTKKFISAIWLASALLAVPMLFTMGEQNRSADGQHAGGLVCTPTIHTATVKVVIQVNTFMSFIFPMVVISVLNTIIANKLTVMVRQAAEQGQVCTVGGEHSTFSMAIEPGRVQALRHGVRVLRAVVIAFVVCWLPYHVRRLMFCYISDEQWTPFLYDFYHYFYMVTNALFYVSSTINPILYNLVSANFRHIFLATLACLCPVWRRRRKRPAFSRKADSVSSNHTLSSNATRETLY
Cysteine protease ATG4B, sequence (Q9Y4P1 whole entry): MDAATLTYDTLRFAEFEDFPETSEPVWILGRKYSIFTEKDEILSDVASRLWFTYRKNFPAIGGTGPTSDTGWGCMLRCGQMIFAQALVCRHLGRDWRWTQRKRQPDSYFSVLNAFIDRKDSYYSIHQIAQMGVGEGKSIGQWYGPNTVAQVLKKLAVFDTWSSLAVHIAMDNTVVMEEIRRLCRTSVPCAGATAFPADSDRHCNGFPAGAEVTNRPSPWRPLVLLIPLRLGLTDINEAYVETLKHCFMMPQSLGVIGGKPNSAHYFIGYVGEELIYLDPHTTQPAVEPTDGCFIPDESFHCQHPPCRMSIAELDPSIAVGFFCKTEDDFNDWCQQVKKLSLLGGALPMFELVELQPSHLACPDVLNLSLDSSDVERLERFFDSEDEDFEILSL
Mu-type opioid receptor, sequence (P35372 whole entry): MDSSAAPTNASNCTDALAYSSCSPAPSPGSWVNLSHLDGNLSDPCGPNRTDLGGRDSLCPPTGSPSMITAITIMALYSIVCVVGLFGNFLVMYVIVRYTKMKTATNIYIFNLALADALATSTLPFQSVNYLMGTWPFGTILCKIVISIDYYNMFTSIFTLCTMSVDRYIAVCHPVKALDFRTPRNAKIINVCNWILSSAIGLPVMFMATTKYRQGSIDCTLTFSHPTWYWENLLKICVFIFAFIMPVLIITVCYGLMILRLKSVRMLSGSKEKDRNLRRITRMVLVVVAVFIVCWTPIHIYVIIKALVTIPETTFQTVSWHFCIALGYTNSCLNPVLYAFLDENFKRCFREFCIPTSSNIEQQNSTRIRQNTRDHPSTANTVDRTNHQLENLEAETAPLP
Phospholipase A2, sequence (P04054 whole entry): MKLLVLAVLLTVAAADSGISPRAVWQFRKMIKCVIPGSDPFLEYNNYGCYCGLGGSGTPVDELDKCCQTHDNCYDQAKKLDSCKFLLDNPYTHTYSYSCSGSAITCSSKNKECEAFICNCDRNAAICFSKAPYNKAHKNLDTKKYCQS
Melanocortin receptor 4, sequence (P32245 whole entry): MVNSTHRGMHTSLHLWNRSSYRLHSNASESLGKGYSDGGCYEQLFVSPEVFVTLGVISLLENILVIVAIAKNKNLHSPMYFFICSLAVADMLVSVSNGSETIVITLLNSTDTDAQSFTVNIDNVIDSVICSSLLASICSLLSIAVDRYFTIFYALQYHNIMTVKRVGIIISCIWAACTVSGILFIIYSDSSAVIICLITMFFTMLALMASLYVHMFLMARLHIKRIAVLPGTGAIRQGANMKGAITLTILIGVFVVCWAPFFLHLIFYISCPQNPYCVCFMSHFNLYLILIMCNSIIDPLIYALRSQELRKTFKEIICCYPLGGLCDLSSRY
Delta-type opioid receptor, sequence (P41143 whole entry): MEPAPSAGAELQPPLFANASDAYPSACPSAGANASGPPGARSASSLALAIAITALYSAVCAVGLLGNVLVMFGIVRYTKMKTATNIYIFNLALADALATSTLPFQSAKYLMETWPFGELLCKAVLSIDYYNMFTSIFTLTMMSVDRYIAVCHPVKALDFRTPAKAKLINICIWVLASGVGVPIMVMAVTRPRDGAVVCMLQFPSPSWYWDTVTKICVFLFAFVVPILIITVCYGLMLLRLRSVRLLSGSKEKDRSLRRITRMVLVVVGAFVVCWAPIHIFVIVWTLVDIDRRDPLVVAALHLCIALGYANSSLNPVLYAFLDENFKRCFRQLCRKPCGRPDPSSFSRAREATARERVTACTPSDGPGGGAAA

| SMILES | EC50 [1] | AC50 [2] | EC50 (BJ [3]) | IC50 (Phospholipase A2) | EC50 (BJ [4]) | IC50 (Cysteine protease ATG4B) | AC50 [5] | EC50 (BJ [6]) | EC50 [7] | EC50 [8] | IC50 [9] | EC50 (Streptococcus) | AC50 [10] | IC50 (Melanocortin receptor 4) | EC50 (Mu-type opioid receptor) | EC50 (Streptokinase A) | AC50 (A-375) | EC50 [11] | EC50 [12] |
| --- | --- | --- | --- | --- | --- | --- | --- | --- | --- | --- | --- | --- | --- | --- | --- | --- | --- | --- | --- |
| O=C(OCCN1C(=O)c2cccc3c(N4CCOCC4)ccc(c23)C1=O)c1ccccc1Cl | 18.8 µM (active) | 3.06 µM (active) | 21.5 µM (active) | > 80 µM (inactive) | > 150 µM (inconclusive) | > 80 µM (inactive) | 6.25 µM (active) | 17.2 µM (active) | – | – | – | – | – | – | – | – | – | – | – |
| CN(C)S(=O)(=O)c1ccc(-c2csc(N/N=C/c3ccc(O)cc3)n2)cc1 | – | – | – | – | – | – | – | – | 8.68 µM (active) | 6.62 µM (active) | > 64.6 µM (inactive) | 13.3 µM (active) | 4.6 µM (active) | > 64.6 µM (inactive) | > 92.5 µM (inactive) | > 150 µM (not active) | 30.8 µM (active) | > 92.5 µM (inactive) | > 92.5 µM (inactive) |
